Experimental data reported in paper PMC8452302 (CPT: Pharmacometrics & Systems Pharmacology, 2021).
Read-outs that look alike come from different tables or passages of the source. Values belong to the molecule of their own block, whether it stands above or below them.

What was measured:
[1] = target: T1, OATP1B3 (Homo sapiens, UniProt Q9NPD5); test: Static DDI risk assessment, OATP1B3 R-value; details: 1 + Iin,max,u/IC50; metabolite/combination additive; Imax,u for IV
T1 sequence (Q9NPD5 1-702): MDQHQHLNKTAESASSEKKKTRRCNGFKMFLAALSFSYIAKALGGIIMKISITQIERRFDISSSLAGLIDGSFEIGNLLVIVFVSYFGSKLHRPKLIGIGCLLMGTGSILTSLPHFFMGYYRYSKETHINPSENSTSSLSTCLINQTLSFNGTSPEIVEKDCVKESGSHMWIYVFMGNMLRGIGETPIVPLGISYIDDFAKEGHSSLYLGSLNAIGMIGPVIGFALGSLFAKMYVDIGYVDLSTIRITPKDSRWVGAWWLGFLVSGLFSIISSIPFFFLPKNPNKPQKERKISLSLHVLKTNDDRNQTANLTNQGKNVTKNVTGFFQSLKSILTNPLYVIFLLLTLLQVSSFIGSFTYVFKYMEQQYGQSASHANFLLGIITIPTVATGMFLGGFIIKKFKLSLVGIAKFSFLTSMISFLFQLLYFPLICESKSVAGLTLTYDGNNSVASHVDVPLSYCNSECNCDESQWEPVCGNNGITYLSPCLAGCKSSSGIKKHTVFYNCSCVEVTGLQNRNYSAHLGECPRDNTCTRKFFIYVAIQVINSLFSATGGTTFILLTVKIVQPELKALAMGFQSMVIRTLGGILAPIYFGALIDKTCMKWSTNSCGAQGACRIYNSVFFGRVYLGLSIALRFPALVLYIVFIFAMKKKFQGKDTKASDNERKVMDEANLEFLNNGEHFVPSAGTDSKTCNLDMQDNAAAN

[2] = target: T2, OATP1B1 (Homo sapiens, UniProt Q9Y6L6); test: Static DDI risk assessment, OATP1B1 R-value; details: 1 + Iin,max,u/IC50; metabolite/combination additive; Imax,u for IV
T2 sequence (Q9Y6L6 1-691): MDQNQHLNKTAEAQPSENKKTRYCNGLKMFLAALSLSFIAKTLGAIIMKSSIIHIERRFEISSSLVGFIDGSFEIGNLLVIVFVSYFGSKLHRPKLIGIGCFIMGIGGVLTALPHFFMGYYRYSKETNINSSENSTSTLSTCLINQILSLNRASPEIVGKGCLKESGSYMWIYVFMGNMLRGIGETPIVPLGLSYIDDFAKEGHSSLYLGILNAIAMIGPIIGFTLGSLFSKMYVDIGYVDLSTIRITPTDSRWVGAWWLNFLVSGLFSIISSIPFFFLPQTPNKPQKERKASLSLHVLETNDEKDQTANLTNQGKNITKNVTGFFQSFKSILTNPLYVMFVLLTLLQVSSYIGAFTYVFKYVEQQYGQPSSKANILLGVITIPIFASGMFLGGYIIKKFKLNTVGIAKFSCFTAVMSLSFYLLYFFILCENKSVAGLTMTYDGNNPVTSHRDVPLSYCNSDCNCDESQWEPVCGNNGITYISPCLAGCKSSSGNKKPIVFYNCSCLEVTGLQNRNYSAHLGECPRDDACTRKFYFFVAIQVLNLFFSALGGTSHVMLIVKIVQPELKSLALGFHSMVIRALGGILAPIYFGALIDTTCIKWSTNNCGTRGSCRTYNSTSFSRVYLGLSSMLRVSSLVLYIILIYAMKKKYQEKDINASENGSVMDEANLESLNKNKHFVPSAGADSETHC

[3] = cited from earlier work; for Rosuvastatin AUC ratio: observed, rosuvastatin with vs without inhibitor; for Rosuvastatin AUC ratio / Cmax ratio Observed: ref Table S1; for Cmax ratio Observed: rosuvastatin with/without inhibitor, regimens as in table row
[4] = target: T3, BCRP (Homo sapiens, UniProt Q9UNQ0); test: In vitro BCRP inhibition, HEK293-BCRP membrane vesicles, rosuvastatin probe; assay type: biochemical
T3 sequence (Q9UNQ0 1-655): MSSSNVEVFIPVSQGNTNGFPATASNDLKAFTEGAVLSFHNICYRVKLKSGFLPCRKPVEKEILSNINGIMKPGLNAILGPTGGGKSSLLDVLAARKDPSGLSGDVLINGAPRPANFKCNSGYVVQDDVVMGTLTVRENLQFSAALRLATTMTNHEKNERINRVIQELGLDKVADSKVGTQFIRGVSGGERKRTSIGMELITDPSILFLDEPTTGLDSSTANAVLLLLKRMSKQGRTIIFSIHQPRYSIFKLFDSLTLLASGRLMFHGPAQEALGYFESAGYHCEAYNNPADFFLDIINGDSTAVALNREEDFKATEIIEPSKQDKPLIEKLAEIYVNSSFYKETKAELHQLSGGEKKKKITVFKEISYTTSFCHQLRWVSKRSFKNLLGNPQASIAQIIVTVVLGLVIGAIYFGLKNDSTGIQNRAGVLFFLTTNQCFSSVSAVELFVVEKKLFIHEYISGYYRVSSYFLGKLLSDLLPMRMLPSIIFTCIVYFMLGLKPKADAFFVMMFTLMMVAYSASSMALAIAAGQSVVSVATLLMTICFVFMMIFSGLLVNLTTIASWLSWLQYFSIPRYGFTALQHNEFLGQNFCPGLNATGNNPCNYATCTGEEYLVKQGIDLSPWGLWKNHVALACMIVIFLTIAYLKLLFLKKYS

[5] = test system: OATP1B1; details: cited from earlier work
[6] = target: T2, OATP1B1; test: In vitro OATP1B1 inhibition, transfected HEK293 cells, rosuvastatin probe; assay type: cell-based
[7] = target: T1, OATP1B3; test: In vitro OATP1B3 inhibition, transfected HEK293 cells, rosuvastatin probe; assay type: cell-based
[8] = test system: BCRP (ABCG2 c.421C>A); details: cited from earlier work
[9] = substrate: CC(C)c1nc(N(C)S(C)(=O)=O)nc(-c2ccc(F)cc2)c1/C=C/[C@@H](O)C[C@@H](O)CC(=O)O; test: BCRP-mediated transport of substrate; assay type: in vitro ADME, human; details: other: membrane vesicles
[10] = substrate: CC(C)c1nc(N(C)S(C)(=O)=O)nc(-c2ccc(F)cc2)c1/C=C/[C@@H](O)C[C@@H](O)CC(=O)O; test: OATP1B1-mediated transport of substrate; assay type: in vitro ADME; details: other: transfected HEK293 cells

1B3 R-Value [1]: 1.07
1B1 R-Value [2]: 1.24
IC50 ([4]; read-out: BCRP IC50, membrane vesicles, rosuvastatin 0.2 µM probe): 4.03 µM
Molecule: C=C[C@@H]1C[C@]1(NC(=O)[C@@H]1C[C@@H]2CN1C(=O)[C@H](C(C)(C)C)NC(=O)O[C@@H]1C[C@H]1CCCCCc1nc3ccc(OC)cc3nc1O2)C(=O)NS(=O)(=O)C1CC1.O [Grazoprevir]
Rosuvastatin AUC ratio [3]: 1.59
Cmax ratio Observed [3]: 4.25
effect on clinical PK of pitavastatin (OATP1B1 probe substrate) [5]: do not alter

1B3 R-Value [1]: 3.86
1B1 R-Value [2]: 1.46
IC50 [6]: 6.8 µM
IC50 [4]: 0.63 µM
IC50 [7]: 1.1 µM
Molecule: C[C@H]1CN(C2COC2)CCN1c1ccc(Nc2cc(-c3ccnc(N4CCn5c(cc6c5CC(C)(C)C6)C4=O)c3CO)cn(C)c2=O)nc1 [Fenebrutinib]
increase in rosuvastatin AUC [3]: ~ 150%
Rosuvastatin AUC ratio [3]: 2.48
Cmax ratio Observed [3]: 4.74
change in plasma exposure of OATP1B1 biomarker coproporphyrin I [5]: no change

Molecule: O=C(O)c1cc(/N=N/c2ccc(S(=O)(=O)Nc3ccccn3)cc2)ccc1O [sulfasalazine]
increase in oral exposure, c.421A/A vs c.421C/C carriers [8]: ≤ 3.5 fold

1B3 R-Value [1]: 1.10
1B1 R-Value [2]: 1.01
IC50 [6]: 27.3 µM
IC50 [4]: 0.95 µM
IC50 [7]: 3 µM
Molecule: CC1=NN(c2ccc(C)c(C)c2)C(=O)/C1=N\Nc1cccc(-c2cccc(C(=O)O)c2)c1O [Eltrombopag]
Rosuvastatin AUC ratio [3]: 1.55

B1: BCRP (Homo sapiens) (protein)
chain: T3 sequence (Q9UNQ0 1-655)
Km [9]: 3.2 µM

B2: OATP1B1 (Homo sapiens) (protein)
chain: T2 sequence (Q9Y6L6 1-691)
Km [10]: 3.8 µM
